In paper PMC8068801, “Novel Benzenesulfonate Scaffolds with a High Anticancer Activity and G2/M Cell Cycle Arrest” (Cancers, 2021):

What was measured:
[1] = tested on: U-251 cells; experiment: Annexin V binding (apoptosis) assay, U-251; format: cell-based, human; details: U-251, 6 μM, 48 h
Method: The K562, U-251 and NHDF cells were seeded in 3 cm Petri dishes (Nunc) at a density of 250,000 cells per well and incubated at 37 °C for 24 h. Then, the medium was removed, and freshly prepared solutions of the tested compounds, BS1 and BS4 (two to three times the IC50 value), were added. After a 48 h incubation, the assays were performed using a FITC Annexin V Apoptosis Detection KIT with 7-AAD (Bio-Legend) according to the manufacturer’s instructions. Briefly, the cells were collected, washed twice with cold PBS and centrifuged at 300 g for 5 min. Next, the cells were resuspended in a 100 µL Annexin V Binding Buffer and incubated for 15 min at room temperature in the dark with 5 µL of FITC Annexin V and 5 µL 7-AAD Viability Staining Solution. After immunostaining, the number of events for live, early and late apoptotic cells were determined using a Muse Cell Analyzer. The experiments were performed at least four times.

[2] = tested on: purified bovine tubulin; experiment: In vitro tubulin polymerization assay; format: biochemical; details: 10 µM; turbidity at 350 nm, maximum absorbance
Method: The effect of small-molecule compounds on tubulin polymerization was monitored using an In Vitro Tubulin Polymerization Kit (≥99% Pure Bovine Tubulin) (Millipore) following the manufacturer’s protocol. Briefly, the tested compounds, BS1 and BS4, as well as reference drugs, paclitaxel (enhancer of polymerization) and nocodazole (inhibitor of polymerization) at a concentration of 10 µM were mixed with purified bovine tubulin (60 μM) and polymerization buffer with GTP (1 mM) on 96-well plate on ice. Then, the plate was transferred into the multi-plate reader (Synergy 4) chamber (heated to 37 °C) and measured the turbidity variation every 30 s at 350 nm during 90 min. The experiments were performed three times.

[3] = tested on: U-251 cells; experiment: qRT-PCR mRNA expression, U-251; format: cell-based, human; details: for Increase in the GADD45α mRNA expression / p62 mRNA expression: 24 h; for LC3 mRNA expression: U-251, 24 h
Method: The total RNA was isolated from the K562 and U-251 cells using the TRIzol Reagent procedure (Ambion, Austin, TX, USA). Reverse transcription was performed with 5 μg of total RNA using a GoScript™ Reverse Transcriptase kit (Promega) and Oligo(dT)23 Primers (Sigma). Real-time PCR was performed using a CTX96 Touch™ Real-Time PCR Detection System (Biorad, Hercules, CA, USA) in a 20 μL reaction volume. The reaction consisted of SsoAdvanced™ Universal SYBR® Green Supermix (Biorad), a specific primer pair mix (0.5 μM each) and 1 μL of cDNA. The reaction was performed under the following conditions: initial denaturation at 95 °C for 30 s; followed by 40 denaturation cycles at 95 °C, 15 s; annealing (primer-specific temperature for 30 s) and extension at 72 °C for 60 s. The obtained results were analyzed based on a comparison of the expression of the target genes to the reference gene, GAPDH, using the 2^−ΔΔCT method. The experiments were performed at least four times.

[4] = tested on: K562 cells; experiment: Cell cycle assay (Muse Cell-Cycle Kit), K562; format: cell-based, human; details: 24 h
Method: The K562, U-251 and NHDF cells were seeded in 3 cm Petri dishes (Nunc) at a density of 250,000 cells per well and incubated under standard conditions at 37 °C for 24 h. […] After a 24 h treatment, the assays were performed using a Muse Cell-Cycle Kit (Millipore, Burlington, MA, USA) according to the supplier’s instructions. Briefly, the cells were collected, washed with cold PBS and centrifuged at 300 g for 5 min. Afterwards, the cells were fixed in ice cold 70% ethanol and stored at −20 °C overnight. The next day, the cells were washed with cold PBS, centrifuged and resuspended in 200 μL of the Muse™ Cell Cycle Reagent. The samples were incubated for 30 min at room temperature in the dark. After staining, the cellular subpopulation values in the individual cell cycle phases were estimated using a cell cycle analysis using a Muse Cell Analyzer (Millipore). The experiments were performed at least four times.

[5] = tested on: K562 cells; experiment: Immunoblotting with densitometry, K562; format: cell-based, human; details: 24 h; for PARP/Reference 89 kDa, densitometric intensity ratio / caspase-9/Reference 37-35 kDa, densitometric intensity ratio: control 0.167; for AIF/Reference 67 kDa, densitometric intensity ratio / BID/Reference 22 kDa, densitometric intensity ratio / PARP/Reference 116 kDa, densitometric intensity ratio / caspase-9/Reference 47 kDa, densitometric intensity ratio / cdc2/Reference 34 kDa, densitometric intensity ratio / cyclin E1/Reference 48 kDa, densitometric intensity ratio: control 1.000
Method: The K562 and U-251 cells were seeded in 3 cm Petri dishes (Nunc) at a density of 500,000 cells per well and incubated overnight. […] Next, the cell pellets were resuspended in an RIPA buffer containing a Halt Protease Inhibitor Cocktail and a Halt Phosphatase Inhibitor Cocktail along with 0.5 M EDTA (all from Thermo Scientific, Waltham, MA, USA) and lysed on ice for 20 min. Then, the obtained lysates were sonicated and centrifuged at 10,000 rpm for 10 min at 4 °C. The supernatants were collected for further analysis. The protein concentration was measured using a Micro BCA™ Protein Assay Kit (Thermo Scientific) according to the manufacturer’s instructions. Equal amounts of the proteins (16 μg) were electrophoresed on SDS-Page gels and transferred onto nitrocellulose membranes. The membranes were blocked in 5% non-fat milk prepared in TPBS (PBS containing 0.1% Tween-20) for 1 h. After blocking, the membranes were incubated with the specific primary antibodies (all from Cell Signaling) at a 1:1000 dilution—cyclin E, cdc2, PARP, AIF, BID, p53, p21^Waf1/Cip1, HIF-1α, cathepsin B and caspase-9—and at a 1:2000 dilution for the reference proteins—vinculin, β-actin and GAPDH—overnight at 4 °C. The next day, the membranes were washed in TPBS and incubated with horseradish peroxidase (HRP)-conjugated secondary antibodies for 1 h at room temperature. Lastly, the membranes were washed in TPBS and incubated with a SuperSignal™ West Pico Chemiluminescent Substrate (Thermo Scientific). The chemiluminescence signals were captured using a ChemiDoc™ XRS + System (Biorad). The experiments were performed at least four to five times. The densitometric analysis was conducted using ImageJ software (Wayne Rasband, National Institutes of Health, Bethesda, MD, USA).
The band intensity of tested proteins (p53, cyclin E1, cdc2, p21, HIF-1α, cathepsin b, PARP, caspase-9, BID, AIF) were analyzed by densitometry readings/intensity ratio, using ImageJ software (NIH) and were normalized to the corresponding reference proteins (GAPDH, vinculin or β-actin) value.
The densitometric readings/intensity ratio data from four/five independent experiments (compared to control): […]
p53/ Refer- p21/ Refer- cdc2/ Refer- Cyclin E1/ HIF-1α/ Cathepsin b/Reference ence ence ence Reference Reference
PARP/Reference BID/ Reference Caspase-9/Reference […]
cdc2/ Reference cyclin E1/ Reference AIF/ Reference BID/ Reference

SMILES	Increase in the GADD45α mRNA expression ([3]; U-251, 4 µM) [fold]	LC3 mRNA expression [3]	Cells in G2/M phase, mean ± SD ([4]; K562, 0.5 μM) [%]	PARP/Reference 89 kDa, densitometric intensity ratio ([5]; K562, 0.35µM)	caspase-9/Reference 37-35 kDa, densitometric intensity ratio ([5]; K562, 0.35µM)	AIF/Reference 67 kDa, densitometric intensity ratio ([5]; K562, 0.35µM)	BID/Reference 22 kDa, densitometric intensity ratio ([5]; K562, 0.35µM)	PARP/Reference 116 kDa, densitometric intensity ratio ([5]; K562, 0.35µM)	caspase-9/Reference 47 kDa, densitometric intensity ratio ([5]; K562, 0.35µM)	cdc2/Reference 34 kDa, densitometric intensity ratio ([5]; K562, 0.35µM)	cyclin E1/Reference 48 kDa, densitometric intensity ratio ([5]; K562, 0.35µM)	PARP/Reference 89 kDa, densitometric intensity ratio ([5]; K562, 0.5µM)	caspase-9/Reference 37-35 kDa, densitometric intensity ratio ([5]; K562, 0.5µM)	AIF/Reference 67 kDa, densitometric intensity ratio ([5]; K562, 0.5µM)	BID/Reference 22 kDa, densitometric intensity ratio ([5]; K562, 0.5µM)	PARP/Reference 116 kDa, densitometric intensity ratio ([5]; K562, 0.5µM)	caspase-9/Reference 47 kDa, densitometric intensity ratio ([5]; K562, 0.5µM)	cdc2/Reference 34 kDa, densitometric intensity ratio ([5]; K562, 0.5µM)	cyclin E1/Reference 48 kDa, densitometric intensity ratio ([5]; K562, 0.5µM)	further results
COc1ccccc1/C=C/c1nc(OS(=O)(=O)c2ccc3c(c2)OCO3)c2ccccc2n1 [BS1, 2-((E)-2-(2-methoxyphenyl)ethenyl)quinazolin-4-yl 1,3-benzodioxole-5-sulfonate]	~1.5	more than two-fold increase	37.20	2.111	1.287	3.809	1.049	1.793	1.109	1.234	1.273	2.156	1.368	2.737	0.695	1.646	1.627	1.122	1.110	Early apoptotic cells, mean ± SD [1]: 39.80%; Late apoptotic cells, mean ± SD [1]: 11.40%; Enhancement of tubulin polymerization, increase compared to control [2]: about 47%; p62 mRNA expression ([3]; U-251, 4 µM): almost four-fold increase; Cells in G2/M phase, mean ± SD ([4]; K562, 0.35 µM): 43.46%; Cleavage caspase-9 proteins (Western blot) ([5]; K562, 0.35 µM): more than six-fold increase
COc1ccccc1/C=C/c1nc(OS(=O)(=O)c2cc3c(cc2Br)OCO3)c2ccccc2n1 [BS2, 2-((E)-2-(2-methoxyphenyl)ethenyl)quinazolin-4-yl 6-bromo-1,3-benzodioxole-5-sulfonate]	–	–	–	0.494	1.268	4.141	0.965	1.556	1.108	1.338	1.640	0.811	1.113	4.160	0.762	1.665	1.104	1.206	1.270	–
COc1ccccc1/C=C/c1nc(OS(=O)(=O)c2ccc(C)cc2)c2ccccc2n1 [BS4, 2-((E)-2-(2-methoxyphenyl)ethenyl)quinazolin-4-yl 4-methylbenzenesulfonate]	~1.5	more than two-fold increase	58.73	–	–	–	–	–	–	–	–	–	–	–	–	–	–	–	–	p62 mRNA expression ([3]; U-251, 6 μM): almost four-fold increase; Cells in G0/G1 phase, mean ± SD ([4]; K562, 0.5 μM): 21.80%; Cells in S phase, mean ± SD ([4]; K562, 0.5 μM): 18.32%
